Source: patent US8569264B2, “Antibacterial 4,5-substituted aminoglycoside analogs having multiple substituents” (ISIS Pharmaceuticals, Inc., priority 2005, dated 2013)
pIC50, pKd: −log10 of the molar value. ≈ marks a conversion by molar mass, not a printed value. Where two headings read alike, the source gives them in different places. Marks after values point to notes of the source that are not given here.

Key:
[1] = molecular target: 18S ribosomal subunit RNA target; assay: Mass spectrometry based binding assay (FTICR), 18S
Procedure: (§1) In a typical experiment, 10 μL of an aqueous solution containing 100 mM ammonium acetate buffer, 2.5 or 5 μM of each RNA, and 33% isopropyl alcohol (to aid ion desolvation) was prepared with different concentrations of each ligand or ligand mixture Samples were introduced into the electrospray ionization source (negative ionization mode) at 1 μL/min and ions were stored for 1 sec in an RF-only hexapole following desolvation. The abundances were integrated from the respective ions for free RNA and the ligand-RNA complex. The primary (1:1 RNA:ligand) and secondary (1:2 complex, if observed). […] The peak ratios were measured at each concentration, then a plot of complex/free RNA versus concentration of ligand added was fitted to a second (or higher) order binding polynomial to determine the KD.

[2] = molecular target: 16S ribosomal subunit RNA target; assay: Mass spectrometry based binding assay (FTICR), 16S
Procedure: as §1, with “[…],” for “2.5 or 5 μM of each RNA,”

[3] = tested on: E. coli S30 bacterial extract (pBestLuc firefly luciferase reporter); assay: Coupled bacterial transcription/translation assay; format: biochemical; conditions: read-out: Trans/Trans IC50
Procedure: The DNA template, pBestLuc™ (Promega), is a plasmid containing a reporter gene for firefly luciferase fused to a strong tac promoter and ribosome binding site. Messenger RNA from 1 μg pBestLuc is transcribed and translated in E. coli S30 bacterial extract in the presence or absence of test compound. Compounds are tested in a black 96 well microtiter plate with an assay volume of 35 μL. […] The transcription/translation reaction is incubated for 35 minutes at 37° C. followed by detection of functional luciferase with the addition of 30 μL LucLite™ (Packard). Light output is quantitated on a Packard TopCount.

E. Coli = assay: MIC, E. Coli; format: cell-based
Procedure: (§2) The MIC assays are carried out in 150 μL volume in duplicate in 96-well clear flat-bottom plates. The bacterial suspension from an overnight culture growth in appropriate medium is added to a solution of test compound in 4% DMSO in water. Final bacterial inoculum is approximately 10^5-10^6 CFU/well. […] Both ampicillin and tetracycline are used as antibiotic-positive controls in each screening assay for S. pyogenes, E. coli imp-, E. coli, S. aureus, E. faecalis, K. pneumoniae and P. vulgaris. Ciprofloxacin is used as an antibiotic positive control in each screening assay for P. aeruginosa.

S. Aureus = assay: MIC, S. Aureus; format: cell-based
Procedure: as §2

[4] = FTICR mass spectrometry, Example 105
[5] = FTICR mass spectrometry, run at 100 nM RNA, Example 105

| Compound | pKd [1, 4] | pKd [2, 5] | pIC50 ([3]; Example 105) | MIC E. Coli. (E. Coli; Example 105) | MIC S. Aureus (S. Aureus; Example 105) | other results |
| --- | --- | --- | --- | --- | --- | --- |
| NCC1OC(OC2C(CO)OC(OC3C(O)C(N)CC(N)C3OC3OC(CO)C(O)C(O)C3N)C2OCCNCc2ccc(N)nc2)C(N)C(O)C1O (stereo not drawn) [Compound 9s] | 6.30 | 7.00 | 6.70 | 3 to 6 µM | 0.3 to 0.6 µM |  |
| NCC1OC(OC2C(CO)OC(OC3C(O)C(N)CC(N)C3OC3OC(CO)C(O)C(O)C3N)C2OCCN(CCc2ccccc2)C(=O)c2ccccc2)C(N)C(O)C1O (stereo not drawn) [Compound 10] |  |  |  |  |  | pKd ([1]; Example 106): 5.60; pKd ([2]; Example 106): 5.41; pIC50 ([3]; Example 106): 6.40; MIC E. Coli. (E. Coli; Example 106): 10 to 20 µM; MIC S. Aureus (S. Aureus; Example 106): 3 to 5 µM |
| NCC1OC(OC2C(CO)OC(OC3C(O)C(N)CC(N)C3OC3OC(CO)C(O)C(O)C3N)C2OCCNCc2ccccc2)C(N)C(O)C1O (stereo not drawn) [Compound 9q] | 6.52 | 7.00 | 6.10 | 3 to 6 µM | 3 to 5 µM |  |
| NCC1OC(OC2C(CO)OC(OC3C(O)C(N)CC(N)C3OC3OC(CN4CCOCC4)C(O)C(O)C3N)C2O)C(N)C(O)C1O (stereo not drawn) [Compound 15c] |  |  |  |  |  | pKd ([1]; Example 108): 5.52; pKd ([2]; Example 108): 5.44; pIC50 ([3]; Example 108): 6.52; MIC E. Coli. (E. Coli; Example 108): 20 to 40 µM; MIC S. Aureus (S. Aureus; Example 108): 10 to 20 µM |
| NCC1OC(OC2C(CO)OC(OC3C(O)C(N)CC(N)C3OC3OC(CO)C(O)C(O)C3N)C2OCCNC23CC4CC(CC(O)(C4)C2)C3)C(N)C(O)C1O (stereo not drawn) [Compound 9w] |  |  |  |  |  | pKd ([1]; Example 106): 5.77; pKd ([2]; Example 106): 5.49; pIC50 ([3]; Example 106): 6.40; MIC E. Coli. (E. Coli; Example 106): 20 to 40 µM; MIC S. Aureus (S. Aureus; Example 106): 1 to 3 µM |
| NCC1OC(OC2C(CO)OC(OC3C(O)C(N)CC(N)C3OC3OC(CO)C(O)C(O)C3N)C2OCCNCc2ccnc(N)c2)C(N)C(O)C1O (stereo not drawn) [Compound 9t] | 6.52 | 7.70 | 6.15 | 6 to 12 µM | 0.6-1^ uM |  |
| NCC1OC(OC2C(CO)OC(OC3C(O)C(N)CC(N)C3OC3OC(CO)C(O)C(O)C3N)C2OCCNCCCc2ccccc2)C(N)C(O)C1O (stereo not drawn) [Compound 9x] | 5.20 | 6.00 | 7.00 | 3 to 5 µM | 0.6 to 1.2 µM |  |
| CC(C)(C)OC(=O)NNCC1OC(OC2C(N)CC(N)C(O)C2OC2OC(CO)C(OC3OC(CN)C(O)C(O)C3N)C2O)C(N)C(O)C1O (stereo not drawn) [Compound 15d] |  |  |  |  |  | pKd ([1]; Example 108): 5.85; pKd ([2]; Example 108): 8.00; pIC50 ([3]; Example 108): 6.52; MIC E. Coli. (E. Coli; Example 108): 6 to 12 µM; MIC S. Aureus (S. Aureus; Example 108): 12 to 25 µM |
| CC(C)NCC1OC(OC2C(N)CC(N)C(O)C2OC2OC(CO)C(OC3OC(CN)C(O)C(O)C3N)C2O)C(N)C(O)C1O (stereo not drawn) [Compound 15h] |  |  |  |  |  | pKd ([1]; Example 108): 5.92; pKd ([2]; Example 108): 5.92; pIC50 ([3]; Example 108): 6.70; MIC E. Coli. (E. Coli; Example 108): 2.5-5^ uM; MIC S. Aureus (S. Aureus; Example 108): 1.3 to 2.5 µM |
| NCC1OC(OC2C(CO)OC(OC3C(O)C(N)CC(N)C3OC3OC(CO)C(O)C(O)C3N)C2OCCNc2cccnc2)C(N)C(O)C1O (stereo not drawn) [Compound 9a] | 5.46 | 6.22 | 7.00 | 3-6^b uM | 0.6-1^ uM |  |
| NCC1OC(OC2C(CO)OC(OC3C(O)C(N)CC(N)C3OC3OC(CO)C(O)C(O)C3N)C2OCCNC2CCCCC2)C(N)C(O)C1O (stereo not drawn) [Compound 9n] | 6.40 | 7.00 | 6.70 | 3 to 6 µM | 3 to 5 µM |  |
| NCC1OC(OC2C(CO)OC(OC3C(O)C(N)CC(N)C3OC3OC(CO)C(O)C(O)C3N)C2OCCNc2cnc3ccccc3c2)C(N)C(O)C1O (stereo not drawn) [Compound 9m] | 6.05 | 7.00 | 7.00 | 12 to 25 µM | 1 to 2 µM |  |
| NCC1OC(OC2C(CO)OC(OC3C(O)C(N)CC(N)C3OC3OC(CO)C(O)C(O)C3N)C2OCCNCCc2cccnc2)C(N)C(O)C1O (stereo not drawn) [Compound 9o] | 6.00 | 6.70 | 6.70 | 6 to 12 µM | 0.6-1^ uM |  |
| NCC1OC(OC2C(CO)OC(OC3C(O)C(N)CC(N)C3OC3OC(CO)C(O)C(O)C3N)C2OCCNCc2nc3ccccc3[nH]2)C(N)C(O)C1O (stereo not drawn) [Compound 9e] | 4.96 | 5.41 | 6.70 | >100 µM | >100 µM |  |
| CNCC1OC(OC2C(N)CC(N)C(O)C2OC2OC(CO)C(OC3OC(CN)C(O)C(O)C3N)C2O)C(N)C(O)C1O (stereo not drawn) [Compound 15e] |  |  |  |  |  | pKd ([1]; Example 108): 5.92; pKd ([2]; Example 108): 6.40; pIC50 ([3]; Example 108): 6.70; MIC E. Coli. (E. Coli; Example 108): 2 to 3 µM; MIC S. Aureus (S. Aureus; Example 108): 2 to 3 µM |
| NCC1OC(OC2C(CO)OC(OC3C(O)C(N)CC(N)C3OC3OC(CO)C(O)C(O)C3N)C2OCCNC2CCCNC2)C(N)C(O)C1O (stereo not drawn) [Compound 9j] | 5.30 | 7.00 | 7.00 | 1.5-3^ uM | 3 to 6 µM |  |
| NCCCNCC1OC(OC2C(N)CC(N)C(O)C2OC2OC(CO)C(OC3OC(CN)C(O)C(O)C3N)C2O)C(N)C(O)C1O (stereo not drawn) [Compound 15b] |  |  |  |  |  | pKd ([1]; Example 108): 5.85; pKd ([2]; Example 108): 5.80; pIC50 ([3]; Example 108): 6.70; MIC E. Coli. (E. Coli; Example 108): 2.5-5^ uM; MIC S. Aureus (S. Aureus; Example 108): 1.3 to 2.5 µM |
| NCC1OC(OC2C(CO)OC(OC3C(O)C(N)CC(N)C3OC3OC(CO)C(O)C(O)C3N)C2OCCNCCc2ccc3ccccc3c2)C(N)C(O)C1O (stereo not drawn) [Compound 9ak] | 5.46 | 6.15 | 6.52 | 10 to 20 µM | 1-3. uM |  |
| NCCOC1C(OC2C(O)C(N)CC(N)C2OC2OC(CO)C(O)C(O)C2N)OC(CO)C1O (stereo not drawn) [Compound 30a] | 4.24 | 4.72 | 6.70 | 6 to 12 µM | 12 to 25 µM |  |
| NC[C@@H]1O[C@H](O[C@H]2[C@@H](OCCCCCc3ccccc3)[C@H](O[C@@H]3[C@@H](O)[C@H](N)C[C@H](N)[C@H]3O[C@H]3O[C@H](CO)[C@@H](O)[C@H](O)[C@H]3N)O[C@@H]2CO)[C@H](N)[C@@H](O)[C@@H]1O [Compound 14c] | 4.23 | 4.40 | 6.70 |  |  | MIC (E. Coli; Escherichia coli, Example 105): 10 to 20 µM (≈ 7.62 to 15.2 µg/mL); MIC E. Coli. (E. Coli; Example 107): 10 to 20 µM; MIC S. Aureus (S. Aureus; Example 107): 3 to 5 µM; MIC (S. Aureus; Staphylococcus aureus, Example 105): 3 to 5 µM (≈ 2.29 to 3.81 µg/mL) |
